The source of these data is patent US6872803B1, “Peptides” (Kyowa Hakko Kogyo Co., Ltd., priority 1993, dated 2005).

Where a SMILES comes first, the peptide text is derived from it. Bridges are numbered along the chain shown (N, C = ends). [ ]: non-standard residue; d: D form. Hyp = O=C(O)[C@@H]1C[C@@H](O)CN1

One series concerns trypsin. Kind of series: in vitro. The note with it: pH 7.2.
For series [1], the system named is T1, α-chymotrypsin.
T1 construct: purchased Sigma Co
Kind of series: Stability to α-chymotrypsin. The class given is in vitro ADME. The note with it: α-chymotrypsin (Sigma Co.); after 6 hours; α-chymotrypsin 1/10 weight, pH 7.2, 37° C.; read-out: residual amount remaining. The procedure:
(§1) To this were added α-chymotrypsin (Sigma Co.) and N^α-p-tosyl-L-lysine chloromethyl ketone (Sigma Co.) each in an amount of 1/10 weight of compound (2) or (c). […] Absorbance at 220 nm of the eluate was measured.

Series [2] has as its system prolyl-endopeptidase. Briefly: in vitro. The settings on record: prolyl-endopeptidase (Seikagaku Corporation), pH 7.2.
Experimental: (§2) The resulting mixture was incubated at 37° C. and sampled at intervals. The samples were analyzed by HPLC, using a reversed-phase column (YMC-Pack, ODS-AM, 150×6 mm I.D.). Elution was carried out by linear gradient elution using acetonitrile (0% to 45%) containing 0.1% TFA for 30 minutes. Absorbance at 220 nm of the eluate was measured.
In series [3] the target is prolyl-endopeptidase (Elizabethkingia meningoseptica, UniProt P27028). Briefly: in vitro. The settings on record: prolyl-endopeptidase in PBS(−) buffer, pH 7.2.
Sequence of prolyl-endopeptidase (Elizabethkingia meningoseptica, UniProt P27028) (P27028 21-705): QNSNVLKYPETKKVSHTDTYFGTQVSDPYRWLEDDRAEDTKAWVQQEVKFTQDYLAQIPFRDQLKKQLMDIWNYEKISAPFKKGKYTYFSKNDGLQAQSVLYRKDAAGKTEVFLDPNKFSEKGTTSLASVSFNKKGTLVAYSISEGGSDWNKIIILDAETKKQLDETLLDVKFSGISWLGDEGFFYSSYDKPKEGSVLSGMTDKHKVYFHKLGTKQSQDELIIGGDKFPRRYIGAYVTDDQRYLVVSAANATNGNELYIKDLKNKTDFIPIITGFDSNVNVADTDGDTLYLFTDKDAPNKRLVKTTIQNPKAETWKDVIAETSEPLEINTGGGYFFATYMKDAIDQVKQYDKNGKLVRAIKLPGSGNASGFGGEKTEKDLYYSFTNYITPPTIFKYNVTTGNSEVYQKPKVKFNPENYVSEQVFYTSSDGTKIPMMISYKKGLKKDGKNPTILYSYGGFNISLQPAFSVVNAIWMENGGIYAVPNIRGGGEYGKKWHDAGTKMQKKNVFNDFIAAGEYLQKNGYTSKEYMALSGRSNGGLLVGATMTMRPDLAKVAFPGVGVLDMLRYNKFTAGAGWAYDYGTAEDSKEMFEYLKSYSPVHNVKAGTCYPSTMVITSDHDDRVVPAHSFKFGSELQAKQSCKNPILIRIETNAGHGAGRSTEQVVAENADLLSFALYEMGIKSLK
Experimental: as §2
The subject of series [4] is platelet-rich plasma (PRP). Kind of series: Inhibitory activity against agglutination of platelets stimulated by collagen. The class given is cell-based, white rabbit. The note with it: collagen 10 μg/ml. The protocol:
The blood was collected from the heart of a white rabbit (male weight 2 kg) and mixed with 3.8% sodium citrate (1:9 3.8% sodium citrate/blood). The mixture was centrifuged at 900 r.p.m., and the supernatant was isolated as platelet-rich plasma (PRP). The remaining lower layer was centrifuged at 2500 r.p.m., and the supernatent was isolated as platelet-poor plasma (PPP). These isolates were used in the following test. The percentage of platelet agglutination was measured, using a platelet agglutination measuring device, TE-500 (produced by Elmer Optical Co.). As the standard for platelet agglutination in this test, the percentage of platelet agglutination measured in PRP only was defined as 0%, while that measured in PPP only as 100%. Test solutions each containing a test compound, compound (1) or compound (b) were prepared so as to give a final concentration of 1, 0.3 or 0.1 mM.
Ten μl of re-distilled water (as a control) or the test solution and 200 μl of PRP were put into a cuvet and pre-incubated for 3 minutes, then 10 μl of a collagen that had been prepared to have a final concentration of 10 μg/ml were added thereto, and the percentage of platelet agglutination was measured.

The subject of series [5] is B16-F10 (mouse melanoma) cells. Kind of series: Cell-adhesion inhibiting activity (adhesion of biotin-labeled cells to mouse fibronectin-coated plate). The class given is cell-based. The procedure:
To a 96-well flat bottom plate (Sumitomo Bakelite Co.) added were […] (5 μg/ml-culture) of mouse fibronectin (produced by Telios Pharmaceutical Inc.). The plate was allowed to stand for 2 hours at room temperature to coat with mouse fibronectin. Each solution was added to the plate. Next, biotin-labeled B16-F10 (mouse melanoma) cells were added thereto and incubated at 37° C. for 30 minutes. After incubation, the non-adhered cells were removed by suction, and the adhered cells were fixed by 0.25% glutaraldehyde/PBS. The thus-fixed cells were washed with Tween-PBS, and peroxidase-labeled avidin D (Vector Co.) was added thereto and reacted for one hour at room temperature. Thereafter, the cells were washed with Tween-PBS and colored with an ABTS solution. Using NJ-2001 (Nippon Intermed Co.), the absorbance of the colored cells at OD415 was measured by colorimetry.
From the absorbance thus measured, the percentage inhibition of adhesion of the cells was obtained according to the following equation: Percentage Inhibition of Cell Adhesion=[(A−B)/A]×100 • A: absorbance in the absence of the test compound • B: absorbance in the presence of the test compound […]

The target of series [6] is T2, α-chymotrypsin (Bos taurus, UniProt P00766, DEL14-15/DEL147-148).
T2 construct: purchased Sigma Co
Kind of series: Stability to α-chymotrypsin. The class given is in vitro ADME. The settings on record: α-chymotrypsin (Sigma Co.) in PBS(−) buffer; α-chymotrypsin 1/10 weight, PBS(−) pH 7.2, 37° C. The procedure: as §1

For series [7], the target named is T3, BK receptor derived from guinea pig ilea (Cavia porcellus, UniProt O70526).
T3 construct: from tissue; host or cells: guinea pig ileum membrane fraction
T3 sequence (O70526 1-372): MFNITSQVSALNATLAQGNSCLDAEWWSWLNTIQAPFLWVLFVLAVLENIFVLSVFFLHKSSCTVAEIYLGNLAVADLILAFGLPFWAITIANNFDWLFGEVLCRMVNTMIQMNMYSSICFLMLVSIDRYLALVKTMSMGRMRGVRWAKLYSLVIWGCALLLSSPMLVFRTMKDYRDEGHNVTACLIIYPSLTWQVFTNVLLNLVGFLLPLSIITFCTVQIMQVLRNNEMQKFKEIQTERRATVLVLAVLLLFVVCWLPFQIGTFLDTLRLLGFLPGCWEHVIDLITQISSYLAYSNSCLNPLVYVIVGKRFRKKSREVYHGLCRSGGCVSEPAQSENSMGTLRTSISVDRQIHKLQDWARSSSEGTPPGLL
Kind of series: BK-receptor binding inhibiting activity. The note with it: 3H-BK 200 pM. The protocol:
Inhibition of the binding of BK to the BK receptor derived from guinea pig ilea
Using a polytron (Type PT10/35, Kinematica Gmbh), guinea pig ilea was homogenized in buffer (A) (containing 25 mM N-tris(hydroxymethyl)methyl-2-aminoethane-sulfonic acid-NaOH, pH 6.8) at 4° C.
The suspension thus obtained was centrifuged at 4° C. for 10 minutes at 8,000×g, and the supernatant was collected. The supernatant was further centrifuged at 4° C. for 60 minutes at 40,000×g, and the solid was collected. The solid was suspended in buffer (A), and the resulting suspension was centrifuged at 4° C. for 60 minutes at 40,000×g. The resulting solid was suspended to give a protein content of 2 mg/ml to serve as a membrane fraction. […]
^3H-BK (200 pM) was added to each of the membrane fraction solutions, to which non-labeled BK (final concentration: 1 μM) had been added, a test compound had been added or none of these had been added. […] The filter was washed with buffer (C) (comprising 50 mM Tris-HCl, 1 mM EDTA, pH 7.6), and the radioactivity of the filter was measured, using a liquid scintillation counter (LSC3500, Aroka Co.) to determine the amount of the ^3H-BK bound to the receptor and non-specifically bound 3H-BK. […]

The conditions of series [8]: snake venom peptides, literature; cited from earlier work.

On to `CC(C)[C@H](NC(=O)[C@H](Cc1c[nH]c2ccccc12)NC(=O)[C@@H]1CC(=O)NCC(=O)N[C@@H](CC(N)=O)C(=O)N[C@@H](Cc2c[nH]c3ccccc23)C(=O)N[C@@H](Cc2c[nH]cn2)C(=O)NCC(=O)N[C@@H]([C@@H](C)O)C(=O)N[C@@H](C)C(=O)N2CCC[C@H]2C(=O)N1)C(=O)N[C@H](C(=O)NCC(=O)N[C@@H](CCCNC(=N)N)C(=O)NCC(=O)N[C@@H](CC(=O)O)C(=O)N[C@@H](CO)C(=O)N1CCC[C@H]1C(=O)N[C@@H](C)C(=O)O)[C@@H](C)O` [Compound 1] (GNWHGTAPDWVTGRGDSPA-OH; lactam N-9), for which the amount remaining at 9 h, 25 μg/ml in the series on trypsin (trypsin (Sigma Co.)) is approximately 60%.
On to `CC(C)[C@H](NC(=O)[C@H](C)NC(=O)[C@H](Cc1ccc(O)cc1)NC(=O)[C@@H](NC(=O)[C@H](Cc1c[nH]c2ccccc12)NC(=O)[C@@H]1CC(=O)NCC(=O)N[C@@H](CC(N)=O)C(=O)N[C@@H](Cc2c[nH]c3ccccc23)C(=O)N[C@@H](Cc2c[nH]cn2)C(=O)NCC(=O)N[C@@H]([C@@H](C)O)C(=O)N[C@@H](C)C(=O)N2CCC[C@H]2C(=O)N1)C(C)C)C(=O)N[C@H](C(=O)NCC(=O)N[C@@H](CCCNC(=N)N)C(=O)NCC(=O)N[C@@H](CC(=O)O)C(=O)N[C@@H](CO)C(=O)N1CCC[C@H]1C(=O)N[C@@H](C)C(N)=O)[C@@H](C)O` [Compound 2] (GNWHGTAPDWVYAVTGRGDSPA-NH2; lactam N-9), for which the fraction remaining at 6 h, 25 μg/ml with α-chymotrypsin [1] was approximately 95%.
For the compound `CSCC[C@H](NC(=O)[C@@H](NC(=O)[C@@H](NC(=O)[C@H](CS)NC(=O)[C@@H]1CCCN1C(=O)[C@H](CC(C)C)NC(=O)CNC(=O)[C@H](CCSC)NC(=O)[C@H](CO)NC(=O)[C@H](Cc1c[nH]c2ccccc12)NC(=O)[C@@H]1CC(=O)NCC(=O)N[C@@H](CC(N)=O)C(=O)N[C@@H](Cc2c[nH]c3ccccc23)C(=O)N[C@@H](Cc2c[nH]cn2)C(=O)NCC(=O)N[C@@H]([C@@H](C)O)C(=O)N[C@@H](C)C(=O)N2CCC[C@H]2C(=O)N1)C(C)C)C(C)C)C(=O)O` [Compound 3] (GNWHGTAPDWSMGLPCVVM-OH; lactam N-9), the amount remaining at 7 h, 25 μg/ml in the series with prolyl-endopeptidase [2] is approximately 60%.
In the series with prolyl-endopeptidase [2], `CC[C@H](C)[C@H](NC(=O)[C@H](CS)NC(=O)[C@@H]1CCCN1C(=O)[C@H](CC(C)C)NC(=O)CNC(=O)[C@H](CCSC)NC(=O)[C@H](CO)NC(=O)[C@H](Cc1c[nH]c2ccccc12)NC(=O)[C@@H]1CC(=O)NCC(=O)N[C@@H](CC(N)=O)C(=O)N[C@@H](Cc2c[nH]c3ccccc23)C(=O)N[C@@H](Cc2c[nH]cn2)C(=O)NCC(=O)N[C@@H]([C@@H](C)O)C(=O)N[C@@H](C)C(=O)N2CCC[C@H]2C(=O)N1)C(=O)N[C@@H](Cc1ccccc1)C(=O)N[C@@H](CCSC)C(=O)O` [Compound 5] (GNWHGTAPDWSMGLPCIFM-OH; lactam N-9) yielded an amount remaining at 1 h, 25 μg/ml of 63%.
In the series on prolyl-endopeptidase [2], “H-SMGLPCIFM-OH [Compound f, H-Ser-Met-Gly-Leu-Pro-Cys-Ile-Phe-Met-OH]” registered a fraction remaining at 1 h, 25 μg/ml of 12%.
“H-SMGLPCVVM-OH [Compound d, H-Ser-Met-Gly-Leu-Pro-Cys-Val-Val-Met-OH]” displayed a half-life at 25 μg/ml on prolyl-endopeptidase [3] of less than 1 h.
As to “H-VTGRGDSPA-OH [Compound b, H-Val-Thr-Gly-Arg-Gly-Asp-Ser-Pro-Ala-OH]”, the “Percentage of platelet agglutination inhibition (%)” value is 20.3% in series [4] (test compound 0.3 mM) and 61.2% in series [4] (test compound 1.0 mM). Also, the IC50 in series [5] (B16-F10 cells on mouse fibronectin, 37° C. 30 minutes, read-out: concentration for 50% inhibition of the adhesion of the cells (IC50)) amounted to 1130 µM. Besides, in the series on trypsin (trypsin (Sigma Co.) in PBS(−) buffer), the half-life at 25 μg/ml was less than 2 h.
For “H-VYAVTGRGDSPA-NH2 [c, H-Val-Tyr-Ala-Val-Thr-Gly-Arg-Gly-Asp-Ser-Pro-Ala-NH2]”, the “cell adhesion-inhibiting activity (comparison, FIG. 2)” value in [5] (same test, compound (2) versus compound (c)) is “almost the same cell adhesion-inhibiting activity”. Besides, the half-life at 25 μg/ml at α-chymotrypsin [6] is less than 1 h.
Turning to H-[dR]RP[Hyp]GFS[dF]LR-OH [Compound m], the “Percentage inhibition (%)” value in [7] (test compound 10^−7 M) is 68%; in series [7] (test compound 10^−8 M), 20%.
In the case of albolarin, the “activity, times higher than the activity of Gly-Arg-Gly-Asp-Ser” value (shortened to “activity, times higher than the activity”) in series [8] is approximately 1000 times.
For flavoridin, the “activity, times higher than the activity” value in [8] is listed as approximately 1000 times.
trigramin: the “activity, times higher than the activity” value in series [8] is recorded as approximately 1000 times.

As a reminder, the fraction remaining is what is left of the initial amount, in per cent. For orientation: half-life means the time needed for the level to fall by half in the phase considered.
